According to patent US8354447B2, “mGLU receptors antagonists for treating disorders associated with mGLU receptors including addiction and depression” (The Scripps Research Institute, priority 2002, dated 2013):

Columns and labels:
[1] = 9 mg/kg/day nicotine salt (3.16 mg/kg, free base) by osmotic mini-pump; cited from earlier work
Male DBA/2J mice = test: Intravenous nicotine self-administration in drug-naive mice; type: in vivo, mouse; conditions: 0.048 μg/inf nicotine, saline pretreatment
Protocol: Acute self-administration of nicotine was carried out using a previously described method (Semenova et al. 1995, 1999; Kuzmin et al. 1996a, 1997). The tails of the mice were fixed to the surface of the apparatus during the testing sessions to allow drug delivery; the fixing of the tail allowed the mice to move all of their four paws, head and entire body. […] The only cue associated with the delivery of the drug or vehicle infusion was the noise of the pump. Mice were tested either once or twice, with approximately one month between each test. The second test only occurred in a subset of the original set of mice (2-7 pairs of mice from each of the original groups). This was done to increase the number of subjects/condition, and involved randomly assigning and testing these mice under a different set of conditions than in the original test (i.e., different nicotine and/or MPEP dose).
Saline or one of four nicotine doses (0.016, 0.048, 0.16, 0.48 μg/inf) were made available to different groups of animals. Each group consisted of 9-17 pairs of animals, including 2-7 mice per group that had previously undergone one testing session at least one month previously (see above). Pre-treatment with MPEP (0, 5, 10, 20 mg/kg intraperitoneally) occurred 15 minutes prior to the initiation of the test session.
Data analyses were based on the comparison of both active and passive mouse nose-pokes in each pair, using the formula: R=log(AT/PT)−log(ABL/PBL), where (AT/PT) is the ratio of the total number of active versus passive mouse nose-pokes during the 30-min test, and (ABL/PBL) is the ratio of the total number of active versus passive mouse nose-pokes during the 10-min pre-test. […] Some data-points (9/237 pairs of mice) were excluded from the final analyses based on whether or not they lay within 2 standard deviations of the group mean for that specific condition. Nicotine self-administration data, obtained after saline pre-treatment, were analyzed using a one-way ANOVA with nicotine (4 levels) defined as the between-subjects factor. R-criterion data were analyzed using two-way ANOVAs with MPEP dose (4 levels) and nicotine dose (4 levels) defined as the between-subjects factors. Pre-planned R-criterion data analyses were performed using one-way ANOVAs for each available dose of self-administered nicotine and saline, with MPEP dose (4 levels) defined as the between-subject factor. Appropriate individual comparisons were performed using the Student-Newman-Keuls post hoc test. […] Body weights and pre-test nose-poke activity levels were analyzed with three-way ANOVAs (nicotine dose, MPEP dose and mouse, i.e. active/passive, defined as between-subjects factors).

Question: For `CN1CCCC1c1cccnc1` (single isomer, unassigned; (-)) [nicotine, (−)-1-methyl-2-(3-pyridyl) pyrrolidine], which “stable plasma nicotine levels” value [1] is on record?
Answer: Its value is about 44 ng/mL.

Question: What about the “self-administration (R-criterion)” value (Male DBA/2J mice) of the same compound?
Answer: The value was “significantly different from saline administration”.
